Assays:
RPE cells = experiment: Wound healing assay; type: cell-based
Description: Wound healing analysis: Confluent RPE cells were synchronized by incubating with 2 mM thymidine for 18-20 hours. Two intersecting lines were drawn into the confluent cells using a pipette tip. A phase-contrast image was acquired of the intersection point (“0 h” time-point) on an Olympus IX50 inverted microscope, immediately followed by treatment with the respective inhibitor and 2 mM thymidine. Phase-contrast images of the intersection point were acquired every 2 hours for 12 hours, continuing incubation at 37° C. in 5% CO2 in-between time points. Using ImageJ, the distances between each pair of neighboring vertices of the intersection point at each time-point were measured and normalized to the “0 h” sample.
RPE-hTERT Flp-In cells, propagated in DME M:F12 media with 10% fetal bovine serum at 37° C. in a 5% CO2 humidified incubator, were grown to confluence in 6-well tissue culture plates. One day prior to performing the wound healing assay, the medium was exchanged to also include 2 mM thymidine, so that the cells would stop dividing.
A cross-shaped wound was scratched into each well, and the cells imaged by phase contrast microscopy using at 4× magnification using a Olympus IX50 Inverted microscope. Then the cell media was exchanged to include vehicle (DMSO at 0.01%), 50 nM FQI2-34, 100 nM FQI2-34, or 200 nM FQI2-34; 2 mM thymidine was maintained throughout, as well. Cells were imaged again at 2 h, 4h, 6h, and 8h, in order to measure the migration of the cells into the wound.
Each of the 4 lines across the vertices of the “X” were individually measured from each set of images using ImageJ. Relative distances of cell migration into the wound were obtained by subtracting each of the lengths for 2-8 hour timepoints from the length at the 0 hour timepoint for that line and that sample. The averages of the four changes in lengths per sample were then plotted over time for each concentration of FQI2-34, from […], using Prism software. Triplicate technical replicates were performed for each concentration.

LSF = biological target: T1, LSF (Homo sapiens, UniProt Q12800); experiment: Cellular thermal shift assay (CETSA) in Huh7 cells; type: binding; conditions: 50 μM, three hours, vs DMSO
T1 construct: Representative immunoblots of soluble LSF after treatment with FQI2-34 versus DMSO; endogenous in cells; host or cells: Huh7
T1 sequence (Q12800 1-502): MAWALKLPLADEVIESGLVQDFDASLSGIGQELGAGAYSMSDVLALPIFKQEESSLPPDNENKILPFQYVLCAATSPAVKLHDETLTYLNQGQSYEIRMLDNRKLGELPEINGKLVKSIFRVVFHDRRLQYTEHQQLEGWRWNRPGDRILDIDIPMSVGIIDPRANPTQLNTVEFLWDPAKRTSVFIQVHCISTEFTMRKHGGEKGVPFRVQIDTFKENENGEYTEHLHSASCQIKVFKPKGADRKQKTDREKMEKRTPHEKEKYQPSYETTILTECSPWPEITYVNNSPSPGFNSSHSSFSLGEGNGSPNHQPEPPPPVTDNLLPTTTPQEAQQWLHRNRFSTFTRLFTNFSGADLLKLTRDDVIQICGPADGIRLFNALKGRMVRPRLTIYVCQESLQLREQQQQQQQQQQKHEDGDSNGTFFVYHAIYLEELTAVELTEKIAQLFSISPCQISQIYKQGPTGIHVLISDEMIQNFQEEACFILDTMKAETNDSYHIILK
Description: Cellular Thermal Shift Assay (CETSA): Huh7 cells obtained from JCRB (Japanese Cancer Resources Bank) were cultured in DMEM medium (Corning) supplemented with 10% fetal bovine serum (Gibco). The cells were cultured at 37° C. in 5% CO2. Approximately 9×10^5 Huh7 cells were plated per 10 cm plate. After 20 hours, cells were treated for three hours with fresh media containing 50 μM FQI1, 50 μM FQI2-34, or 0.1% DMSO (FQI1 control) or 0.5% DMSO (FQI2-34 control). Subsequently, the cells were washed with PBS (137 mM NaCl, 2.7 mM KCl, 10 mM Na2HPO4, 2 mM KH2PO4, pH 7.2) supplemented with their respective treatments (FQI1, FQI2-34, or vehicle) and scraped from the dish in the presence of 5 mL of PBS supplemented with 1 mM Pefabloc (Sigma-Aldrich, 76307) plus the respective treatment. Pelleted cells were resuspended in 500 μL of PBS buffer with 1 mM Pefabloc plus the respective treatment. Aliquots of 50 μL of cell suspension from each treatment sample were incubated separately at the indicated temperatures for 3 minutes in a thermal cycler (Bio-rad, T100 Thermocyler), then cooled at the room temperature for 3 minutes. Lysates were prepared by four rounds of snap freezing and thawing. […] Films were scanned and band intensities were quantified by densitometry with Image J; a non-parametric t-test was used to determine statistical significance.

FH-B cells = experiment: MTS cell proliferation assay; type: cell-based, human; conditions: for GI50: Homo sapiens, FH-B cells, MTS assay, 72 hour treatment
Description: MTS Cell Proliferation Assay: Three thousand FH-B cells were seeded per well in a 96-well plate and incubated at 37° C. for 20 hours. Compound dilutions were prepared in DMSO and added to the cell culture media to a final DMSO concentration of 1% for a 72 hour treatment. Cell growth inhibition was assessed by measuring absorbance at 490 nm using the Promega CellTiter 96® AQueous One Solution Cell Proliferation Assay (Promega, G358C). Percent growth inhibition was determined by the ratio of the absorbance of treatment wells to the absorbance of control wells. A non-linear regression plot of the percentage of growth inhibition versus compound concentration was prepared using GraphPad Prism software, using settings for the curves of variable slope and four parameters. The relative GI50 value was determined from the curve as the concentration of drug that provokes a response halfway between the top and bottom plateaus of the curve.

Structure (SMILES)	fold lower concentration than that used for FQI1 in the same assay (RPE cells) [fold]	concentration that effectively inhibits cell migration (RPE cells; 50, 100, 200 nM tested, 2-8 h) [nM]	stability of LSF to thermal denaturation (LSF)	fold higher efficacy than FQI1 in inhibiting proliferation of FH-B cells (FH-B cells) [fold]	GI50 (FH-B cells) [nM]	time by which inhibition of migration is detectable (RPE cells; 4 μM FQI1) [h]	migration of cells into the wound (RPE cells; 4 μM FQI1 or 1 μM nocodazole, monitored 12 hours)
CCOc1cc(N(C)C)ccc1-c1cc(=O)[nH]c2cc3c(cc12)OCO3 [FQI2-34, 8-(4-(dimethylamino)-2-ethoxyphenyl)-[1,3]dioxolo[4,5-g]quinolin-6(5H)-one]	20	200	enhanced the stability of LSF to thermal denaturation	17	140	–	–
CCOc1ccccc1C1CC(=O)Nc2cc3c(cc21)OCO3 (stereo not drawn) [FQI1, 8-(2-ethoxyphenyl)-7,8-dihydro-[1,3]dioxolo[4,5-g]quinolin-6(5H)-one]	–	–	enhanced the stability of LSF to thermal denaturation	–	2300	≤ 4	hindered RPE cells from migrating into the wound
